≈ marks a conversion by molar mass, not a printed value. Residues, ends and D or L forms follow the SMILES beside them.
Columns and labels:
[1] = system: Escherichia coli (K514); assay type: cell-based; settings: agar plate, cecropin P1 5 nanomoles/well (column head: 500p), 3 mm wells
[2] = system: Enterobacter cloacae; experiment: Inhibition zone assay (agar plate); assay type: cell-based; settings: agar plate, 3 mm wells
[3] = system: Klebsiella pneumoniae; experiment: Inhibition zone assay (agar plate); assay type: cell-based; settings: agar plate, 3 mm wells
[4] = system: Salmonella typhimurium; experiment: Inhibition zone assay (agar plate); assay type: cell-based; settings: agar plate, 3 mm wells
[5] = system: Salmonella typhi; assay type: cell-based; settings: agar plate, cecropin P1 5 nanomoles/well (column head: 500p), 3 mm wells
[6] = system: Shigella dysenteriae; assay type: cell-based; settings: agar plate, cecropin P1 5 nanomoles/well (column head: 500p), 3 mm wells
[7] = system: Yersinia enterocolitica; experiment: Inhibition zone assay (agar plate); assay type: cell-based; settings: 3 mm wells
[8] = system: Campylobacter jejuni; experiment: Inhibition zone assay (agar plate); assay type: cell-based; settings: cecropin P1 5 nanomoles/well (column head: 500p), 3 mm wells
[9] = system: Acinetobacter calcoaceticus; experiment: Inhibition zone assay (agar plate); assay type: cell-based; settings: agar plate, 3 mm wells
[10] = system: Agrobacterium tumefaciens; experiment: Inhibition zone assay (agar plate); assay type: cell-based; settings: agar plate, 3 mm wells
[11] = system: Legionella pneumophila; assay type: cell-based
[12] = system: Rhizobium meliloti; experiment: Inhibition zone assay (agar plate); assay type: cell-based; settings: 3 mm wells
[13] = system: Haemophilus influenzae; experiment: Inhibition zone assay (agar plate); assay type: cell-based; settings: 3 mm wells
[14] = system: Helicobacter pylori; assay type: cell-based; settings: cecropin P1, 5 nanomoles/well
[15] = system: Neisseria gonorrhoeae; assay type: cell-based; settings: cecropin P1, 5 nanomoles/well
[16] = system: N. meningiditis; assay type: cell-based; settings: cecropin P1, 5 nanomoles/well
[17] = system: Gardnerella vaginalis; assay type: cell-based; settings: cecropin P1, 5 nanomoles/well
[18] = system: Proteus mirabilis; assay type: cell-based; settings: cecropin P1, 5 nanomoles/well
[19] = system: Xanthomonas maltophilia; assay type: cell-based; settings: cecropin P1, 5 nanomoles/well
[20] = system: Haemophilus ducreyi; assay type: cell-based; settings: cecropin P1, 5 nanomoles/well
[21] = system: Bacteriodes melaninogenicus; assay type: cell-based; settings: cecropin P1, 5 nanomoles/well
[22] = system: E. coli Apid^R; experiment: Minimal inhibitory concentration (liquid culture); assay type: cell-based; settings: a-b = highest concentration with growth - lowest without growth
Description: For details see `Experimental Procedures`.

[23] = system: bacterial strains used in this study; experiment: Minimal inhibitory concentration, inoculum effect; assay type: cell-based; settings: any of the bacterial strains used
[24] = system: E. coli strain 11775Apid^R; settings: 11775Apid^R vs ATCC 11775; cited from earlier work
[25] = system: E. coli 11775; experiment: Minimal inhibitory concentration (liquid culture); settings: a-b = highest concentration with growth - lowest without growth
[26] = system: E. coli 23802; experiment: Minimal inhibitory concentration (liquid culture); settings: inoculum 5000 CFU/ml; a-b = highest concentration with growth - lowest without growth
[27] = system: E. coli 25922; experiment: Minimal inhibitory concentration (liquid culture); settings: inoculum 1100 CFU/ml; a-b = highest concentration with growth - lowest without growth
[28] = system: S. typhimurium; experiment: Minimal inhibitory concentration (liquid culture); settings: inoculum 8 × 10^6 CFU/ml; a-b = highest concentration with growth - lowest without growth
[29] = system: A. calcoaceticus; experiment: Minimal inhibitory concentration (liquid culture); settings: inoculum 16 × 10^6 CFU/ml; a-b = highest concentration with growth - lowest without growth
[30] = system: M. morganii; experiment: Minimal inhibitory concentration (liquid culture); settings: inoculum 400 CFU/ml; a-b = highest concentration with growth - lowest without growth
[31] = system: Y. enterocolitica; experiment: Minimal inhibitory concentration (liquid culture); settings: inoculum 5000 CFU/ml; a-b = highest concentration with growth - lowest without growth
[32] = system: Escherichia coli (ATCC11775); experiment: Inhibition zone assay (agar plate); assay type: cell-based; settings: agar plate, 50 nanomoles/well, 3 mm wells
[33] = system: Erwinia amylovora; experiment: Inhibition zone assay (agar plate); assay type: cell-based; settings: agar plate, 50 nanomoles/well, 3 mm wells
[34] = system: Morganella morganii; experiment: Inhibition zone assay (agar plate); assay type: cell-based; settings: 50 nanomoles/well, 3 mm wells
[35] = system: Pseudomonas syringae; experiment: Inhibition zone assay (agar plate); assay type: cell-based; settings: agar plate, 50 nanomoles/well, 3 mm wells
[36] = system: E. coli 11775; settings: against 10^7 cells/ml, parental strain ATCC 11775; cited from earlier work
[37] = system: E. coli Apid^R; settings: cited from earlier work
[38] = cecropin P1 5 nanomoles/well (column head: 500p)

Structure (SMILES): CC[C@H](C)[C@H](NC(=O)CNC(=O)[C@H](CCC(=O)O)NC(=O)[C@H](CO)NC(=O)[C@@H](NC(=O)[C@H](CCCNC(=N)N)NC(=O)[C@H](CCCCN)NC(=O)[C@H](CCCCN)NC(=O)[C@H](C)NC(=O)[C@H](CO)NC(=O)[C@H](CC(N)=O)NC(=O)[C@H](CCC(=O)O)NC(=O)[C@H](CC(C)C)NC(=O)[C@H](CCCCN)NC(=O)[C@H](CCCCN)NC(=O)[C@H](C)NC(=O)[C@@H](NC(=O)[C@H](CCCCN)NC(=O)[C@H](CO)NC(=O)[C@H](CC(C)C)NC(=O)[C@H](Cc1c[nH]c2ccccc12)NC(=O)[C@@H](N)CO)[C@@H](C)O)[C@@H](C)CC)C(=O)N[C@@H](C)C(=O)N[C@H](C(=O)N[C@@H](C)C(=O)N[C@H](C(=O)N[C@@H](CCC(N)=O)C(=O)NCC(=O)NCC(=O)N1CCC[C@H]1C(=O)N[C@@H](CCCNC(=N)N)C(=O)O)[C@@H](C)CC)[C@@H](C)CC [CP-1, cecropin P1, reference compound] (H-SWLSKTAKKLENSAKKRISEGIAIAIQGGPR-OH)
- inhibition zone diameter (number of plus signs) [1]: + ((+) 5-6 mm)
- inhibition zone diameter (number of plus signs) [2, 38]: ++++ ((++++) 15-19 mm)
- inhibition zone diameter (number of plus signs) [3, 38]: + ((+) 5-6 mm)
- inhibition zone diameter (number of plus signs) [4, 38]: ++ ((++) 7-9 mm)
- inhibition zone diameter (number of plus signs) [5]: +++++ ((+++++) 20 or more min)
- inhibition zone diameter (number of plus signs) [6]: ++++ ((++++) 15-19 mm)
- inhibition zone diameter (number of plus signs) [7, 38]: +++++ ((+++++) 20 or more min)
- inhibition zone diameter (number of plus signs) [8]: +++ ((+++) 10-14 mm)
- inhibition zone diameter (number of plus signs) [9, 38]: ++ ((++) 7-9 mm)
- inhibition zone diameter (number of plus signs) [10, 38]: ++++ ((++++) 15-19 mm)
- inhibition zone diameter (number of plus signs) [11]: +++++ (key: (+) 5-6 mm; (++) 7-9 mm; (+++) 10-14 mm; (++++) 15-19 mm; (+++++) 20 or more min; (-) denotes that no inhibition was observed)
- inhibition zone diameter (number of plus signs) [12, 38]: + ((+) 5-6 mm)
- inhibition zone diameter (number of plus signs) [13, 38]: ++++ ((++++) 15-19 mm)
- measurable activity on agar plate [14]: not
- measurable activity on agar plate [15]: not
- measurable activity on agar plate [16]: not
- measurable activity on agar plate [17]: not
- measurable activity on agar plate [18]: not
- measurable activity on agar plate [19]: measurable activity
- measurable activity on agar plate [20]: measurable activity
- measurable activity on agar plate [21]: measurable activity
- minimal inhibitory concentration (MIC) ([22]; inoculum 12 × 10^6 CFU/ml): 0.2 to 1 mg/L
- minimal inhibitory concentration (MIC) ([22]; inoculum 1000 CFU/ml): 0.2 to 1 mg/L
- inoculum effect [23]: No inoculum effect
- susceptibility of mutant compared to parental strain [24]: equally susceptible
- minimal inhibitory concentration (MIC) ([25]; inoculum 16 × 10^6 CFU/ml): 0.2 to 1 mg/L
- minimal inhibitory concentration (MIC) ([25]; inoculum 1200 CFU/ml): 0.2 to 1 mg/L
- minimal inhibitory concentration (MIC) [26]: 0.2 to 1 mg/L
- minimal inhibitory concentration (MIC) [27]: 0.2 to 1 mg/L
- minimal inhibitory concentration (MIC) [28]: 1 to 2 mg/L
- minimal inhibitory concentration (MIC) [29]: 2 to 10 mg/L
- minimal inhibitory concentration (MIC) [30]: 0.2 to 1 mg/L
- minimal inhibitory concentration (MIC) [31]: 0.2 to 1 mg/L

Structure (SMILES): CC[C@H](C)[C@H](NC(=O)[C@H](Cc1ccc(O)cc1)NC(=O)[C@@H](NC(=O)[C@@H]1CCCN1C(=O)[C@H](CCCNC(=N)N)NC(=O)[C@H](CC(N)=O)NC(=O)[C@H](CC(N)=O)NC(=O)CN)C(C)C)C(=O)N1CCC[C@H]1C(=O)N[C@@H](CCC(N)=O)C(=O)N1CCC[C@H]1C(=O)N[C@@H](CCCNC(=N)N)C(=O)N1CCC[C@H]1C(=O)N1CCC[C@H]1C(=O)N[C@@H](Cc1c[nH]cn1)C(=O)N1CCC[C@H]1C(=O)N[C@@H](CCCNC(=N)N)C(=O)N[C@@H](CC(C)C)C(=O)O [Hb Ib, reference compound] (H-GNNRPVYIPQPRPPHPRL-OH)
- inhibition zone diameter (number of plus signs) [32]: ++++ ((++++) 15-19 mm)
- inhibition zone diameter (number of plus signs) ([2]; 50 nanomoles/well): +++ ((+++) 10-14 mm)
- inhibition zone diameter (number of plus signs) [33]: ++++ ((++++) 15-19 mm)
- inhibition zone diameter (number of plus signs) ([3]; 50 nanomoles/well): +++ ((+++) 10-14 mm)
- inhibition zone diameter (number of plus signs) [34]: + ((+) 5-6 mm)
- inhibition zone diameter (number of plus signs) ([4]; 50 nanomoles/well): +++ ((+++) 10-14 mm)
- inhibition zone diameter (number of plus signs) ([7]; 50 nanomoles/well): +++ ((+++) 10-14 mm)
- inhibition zone diameter (number of plus signs) ([9]; 50 nanomoles/well): + ((+) 5-6 mm)
- inhibition zone diameter (number of plus signs) ([10]; 50 nanomoles/well): +++++ ((+++++) 20 or more min)
- inhibition zone diameter (number of plus signs) [35]: ++++ ((++++) 15-19 mm)
- inhibition zone diameter (number of plus signs) ([12]; 50 nanomoles/well): +++++ ((+++++) 20 or more min)
- inhibition zone diameter (number of plus signs) ([13]; 50 nanomoles/well): +++ ((+++) 10-14 mm)
- minimal inhibitory concentration (MIC) ([22]; inoculum 12 × 10^6 CFU/ml): > 40 mg/L
- minimal inhibitory concentration (MIC) ([22]; inoculum 1000 CFU/ml): 20 to 40 mg/L
- MIC value [36]: 0.1 mg/L (≈ 0.0474 µM)
- resistance of mutant relative to parental strain (higher apidaecin concentrations) ([37]; 11775Apid^R vs ATCC 11775): approximately 500 fold
- MIC value ([37]; against 10^7 cells/ml, mutant strain 11775Apid^R): 50 mg/L (≈ 23.7 µM)
- minimal inhibitory concentration (MIC) ([25]; inoculum 16 × 10^6 CFU/ml): 1 to 5 mg/L
- minimal inhibitory concentration (MIC) ([25]; inoculum 1200 CFU/ml): < 0.05 mg/L
- minimal inhibitory concentration (MIC) [26]: 10 to 20 mg/L
- minimal inhibitory concentration (MIC) [27]: 0.5 to 1 mg/L
- minimal inhibitory concentration (MIC) [28]: 1 to 5 mg/L
- minimal inhibitory concentration (MIC) [29]: 10 to 20 mg/L
- minimal inhibitory concentration (MIC) [30]: 1 to 5 mg/L
- minimal inhibitory concentration (MIC) [31]: 1 to 5 mg/L

Source: patent US5466671A, “Apidaecin-type peptide antibiotics with improved activities and/or different antibacterial spectrum” (priority 1994, dated 1995)
